One data set has as its system rats. Particulars: 4 hourly SC injections at 10 mg/kg/injection (Biezonski et al., 2013); cited from earlier work.
The conditions of data set [1]: rats; 1 week after 4 hourly SC injections at 10 mg/kg/injection (Biezonski et al., 2013); cited from earlier work.
The next data set has as its system PTSD participants. To be noted: cited from earlier work.
A further data set relates to C57BL/6 mice. Put plainly: Mouse locomotor activity over 11 days after single administration. As to the method:
Methods. Male C57BL/6 mice (n=10-12 per group) from Jackson Laboratories, US (10-12 weeks of age), were assigned randomly to treatment groups. The animals were acclimated to the laboratory for at least five days prior to experimental manipulation. […] Standard rodent chow and water were available ad libitum, except during experimental test sessions. Animals were maintained in a controlled environment, and temperature and humidity were recorded continuously in the holding room.
The animal procedures were conducted according to established and approved protocols. On each experimental day, animals were acclimated to a procedure room adjacent to the testing room for at least 30 minutes prior to the start of experimental sessions. To evaluate acute compound effects on activity, an animal was administered a single dose of test article 30 minutes prior to individual placement in a novel test chamber on experimental day 1. Activity was detected using photo beams (e.g., 16×16 beams with a space of 2 cm between beams, Med Associates®) and recorded using the Activity Monitor™ program designed by Med Associates®. The primary endpoint was total distance traveled (cm), as a measure of locomotion. Additional activity measures included total ambulatory counts, ambulatory time (sec), vertical counts and vertical time (sec). All endpoints were recorded and analyzed over a 30-minute test period. At the end of the test session, each animal was returned to its home cage. To evaluate potential lasting effects on activity following single administration of compounds, each animal was re-evaluated in the same test chamber on experimental days 2, 6, and 11, without additional test article administration.
Animals were randomly assigned to treatment groups and testing was conducted in a manner counterbalancing treatment groups. Activity measures were analyzed statistically using 2-way analysis of variance (ANOVA) with experimental day as the within-subjects factor and treatment as the between-subjects factor. Following a significant overall ANOVA (p<0.05), post hoc comparisons between test article and vehicle conditions were made using Fisher's Least Significant Difference (LSD, p<0.05).

Another data set addresses T1, Adrenergic α2B (Homo sapiens, UniProt P18089).
T1 sequence (P18089 1-450): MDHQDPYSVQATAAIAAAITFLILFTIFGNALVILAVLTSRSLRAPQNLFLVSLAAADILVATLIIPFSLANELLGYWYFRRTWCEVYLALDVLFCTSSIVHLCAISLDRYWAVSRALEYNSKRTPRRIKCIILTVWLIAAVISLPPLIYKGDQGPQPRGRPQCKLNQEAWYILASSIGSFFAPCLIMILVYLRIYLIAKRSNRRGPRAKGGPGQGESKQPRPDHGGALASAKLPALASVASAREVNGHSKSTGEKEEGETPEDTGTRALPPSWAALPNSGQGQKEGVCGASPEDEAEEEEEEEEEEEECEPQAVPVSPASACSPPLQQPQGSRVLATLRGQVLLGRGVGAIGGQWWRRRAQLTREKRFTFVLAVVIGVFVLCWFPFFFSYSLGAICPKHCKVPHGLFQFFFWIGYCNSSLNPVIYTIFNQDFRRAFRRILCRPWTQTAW
Kind of data set: Eurofins Panlabs radioligand binding panel, adrenergic α2B. To be noted: 10 uM.

A further data set deals with T2, Adrenergic α2A (Homo sapiens, UniProt P08913).
T2 sequence (P08913 1-465): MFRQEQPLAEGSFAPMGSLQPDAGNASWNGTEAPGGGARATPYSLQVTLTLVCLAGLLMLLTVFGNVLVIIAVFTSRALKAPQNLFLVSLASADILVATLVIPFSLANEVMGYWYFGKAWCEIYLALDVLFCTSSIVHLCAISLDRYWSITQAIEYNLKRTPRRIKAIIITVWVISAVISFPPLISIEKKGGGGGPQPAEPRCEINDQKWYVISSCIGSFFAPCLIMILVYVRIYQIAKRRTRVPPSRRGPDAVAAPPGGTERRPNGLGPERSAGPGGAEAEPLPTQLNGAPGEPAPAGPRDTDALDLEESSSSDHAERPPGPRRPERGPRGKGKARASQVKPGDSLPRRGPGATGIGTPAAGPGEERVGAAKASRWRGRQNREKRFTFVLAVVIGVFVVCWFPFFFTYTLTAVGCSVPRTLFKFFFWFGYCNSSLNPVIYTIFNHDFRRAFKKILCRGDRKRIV
Kind of data set: Eurofins Panlabs radioligand binding panel, adrenergic α2A. To be noted: 10 uM. As to the method: Each of the compounds was evaluated for binding to 87 different targets as part of a panel (Eurofins Panlabs, Taiwan, China). Each compound was tested at a single concentration of […]. The panel included mostly G-protein-couple receptors, ion channels, enzymes, transporters and nuclear receptors, expressed in the central nervous system, cardiovascular, respiratory, gastrointestinal and renal systems. A limited number of targets were of pig, rat or guinea pig origin. Targets were expressed in human recombinant cells lines, rat brain or spinal cord, guinea pig brain or pig heart. Methods were adapted from the scientific literature to maximize reliability and reproducibility. Reference standards were run as an integral part of each assay to ensure validity of the results obtained (available online at the eurofins website for the safety screen 87 panel).

[2] abbreviates: racemic MDMA 7.8 mg/kg IP, Day 1, persisted out to Day 2, vs vehicle.
Where [3] appears, read: racemic MDMA 7.8 mg/kg IP, any day of testing (Days 1, 2, 6, 11).
The mark [4] stands for this setting: R-MDMA all 3 dose levels (10, 17, 30 mg/kg IP), only on Day 1.

These results are taken from patent publication US20240082212A1, “USE OF MDMA FOR TREATMENT OF STRESS-RELATED DISORDERS” (priority 2022, published 2024).

As for `CNC(C)Cc1ccc2c(c1)OCO2` (racemic) [Racemic MDMA, 3,4-methylenedioxymethamphetamine], the body temperature result in the data set with rats is given as “significant increase in body temperature”. The “frontal cortical and striatal monoamine concentrations” value in data set [1] is “significant reductions in frontal cortical 5-HT and 5-HIAA and striatal DOPAC and HVA concentrations”. Besides, in the data set on PTSD participants (MDMA group, Phase 3 clinical trial (Mitchell et al., 2021)), the “vital signs (systolic and diastolic blood pressure and heart rate)” value is listed as “transient increase in vital signs”. Further, in the data set with PTSD participants (Phase 3 clinical trial (Mitchell et al., 2021)), the “efficacy for PTSD” value is listed as “efficacy”. Moreover, the “transient increase in body temperature to” value in the data set with PTSD participants (two participants in the MDMA group) is 38.1 °C. For the same compound, the total distance traveled result with C57BL/6 mice (racemic MDMA 7.8 mg/kg IP, Day 1, persisted out to Day 2, 30-minute test, vs vehicle) is recorded as “significantly increased”. Further, in the data set with C57BL/6 mice (setting [2]), the total ambulatory counts result was “increased” and the total ambulatory time entry is “increased”. Further, in the data set on C57BL/6 mice (setting [3]), the total vertical counts result is listed as “did not alter” and the total vertical time entry is listed as “did not alter”.
`CNC(C)Cc1ccc2c(c1)OCO2` (single isomer, unassigned) [R-MDMA, R(−)-3,4-methylenedioxymethamphetamine]: the total ambulatory time entry in the data set on C57BL/6 mice (R-MDMA 2 highest doses (17, 30 mg/kg IP), only on Day 1) was “significantly increased”. Further, the total distance traveled result in the data set on C57BL/6 mice (R-MDMA 10, 17, 30 mg/kg IP, any dose, any day of testing) is recorded as “no significant increase”. Moreover, in the data set on C57BL/6 mice (setting [4]), the total vertical counts result is “significantly reduced” and the total vertical time result is reported as “significantly reduced”. Further, the total ambulatory counts entry with C57BL/6 mice (R-MDMA highest dose (30 mg/kg IP), only on Day 1) is “significantly increased”. Besides, the total vertical time result with C57BL/6 mice (R-MDMA lowest dose (10 mg/kg IP), day 2 only) is listed as “significant increase”.
Turning to `C[C@H](N)Cc1ccc2c(c1)OCO2` [S-MDA, S(+)-MDA], the “% inhibition of binding or activity” value is reported as 51% at Adrenergic α2B and 63% on Adrenergic α2A.
